“And” between values parts separate entries of the source, which are not always exact repeats. Identical values can stand only once.
Legend:
P-glycoprotein (P-gp) = molecular target: T1, P-glycoprotein (P-gp) (Homo sapiens, UniProt P08183); assay: Rhodamine 123 (P-gp substrate) transport across drug-treated Caco-2 cell monolayers; type: cell-based; details: co-incubated with R123, 10 μM, Caco-2 monolayer, Fig 6
T1 construct: The transport of R123 in normal Caco-2 cell monolayers or drug-treated Caco-2 cell monolayers was further studied; host or cells: Caco-2
T1 sequence (P08183 whole entry): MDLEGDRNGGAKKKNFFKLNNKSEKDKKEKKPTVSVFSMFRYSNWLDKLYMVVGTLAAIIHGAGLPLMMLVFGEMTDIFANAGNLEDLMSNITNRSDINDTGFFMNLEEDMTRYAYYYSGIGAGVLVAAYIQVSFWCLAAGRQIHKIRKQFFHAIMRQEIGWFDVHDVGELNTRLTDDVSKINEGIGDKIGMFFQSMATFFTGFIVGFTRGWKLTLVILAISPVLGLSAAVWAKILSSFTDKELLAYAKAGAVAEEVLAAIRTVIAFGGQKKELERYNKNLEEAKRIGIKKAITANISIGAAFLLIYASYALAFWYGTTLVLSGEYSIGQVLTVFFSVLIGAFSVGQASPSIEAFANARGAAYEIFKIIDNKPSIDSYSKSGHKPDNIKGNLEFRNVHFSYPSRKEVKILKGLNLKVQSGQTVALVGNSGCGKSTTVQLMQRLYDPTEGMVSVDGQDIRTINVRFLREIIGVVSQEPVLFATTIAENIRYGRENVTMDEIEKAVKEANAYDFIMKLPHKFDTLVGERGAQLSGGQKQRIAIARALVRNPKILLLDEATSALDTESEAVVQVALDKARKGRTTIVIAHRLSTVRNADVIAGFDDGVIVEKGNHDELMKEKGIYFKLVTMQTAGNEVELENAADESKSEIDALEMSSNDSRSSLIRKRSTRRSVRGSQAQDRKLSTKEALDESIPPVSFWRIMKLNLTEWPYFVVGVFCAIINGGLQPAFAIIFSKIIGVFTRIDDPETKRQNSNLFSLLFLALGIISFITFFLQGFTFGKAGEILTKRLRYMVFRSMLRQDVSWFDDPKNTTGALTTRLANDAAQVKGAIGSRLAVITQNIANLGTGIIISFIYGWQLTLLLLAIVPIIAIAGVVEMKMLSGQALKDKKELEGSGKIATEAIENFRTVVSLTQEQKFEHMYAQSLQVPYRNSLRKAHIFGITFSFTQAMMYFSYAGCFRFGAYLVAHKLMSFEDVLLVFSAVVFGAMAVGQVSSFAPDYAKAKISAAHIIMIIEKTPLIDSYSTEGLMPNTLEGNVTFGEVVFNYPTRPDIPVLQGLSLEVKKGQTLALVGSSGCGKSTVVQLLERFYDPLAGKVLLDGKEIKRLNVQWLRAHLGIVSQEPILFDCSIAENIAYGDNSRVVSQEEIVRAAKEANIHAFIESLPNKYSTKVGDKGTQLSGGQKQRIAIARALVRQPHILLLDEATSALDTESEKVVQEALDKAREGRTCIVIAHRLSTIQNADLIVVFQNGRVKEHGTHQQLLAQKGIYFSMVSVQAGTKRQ
Excerpt: The human epithelial cell line Caco-2 serves as a widely recognized model for the intestinal epithelial barrier, frequently utilized in the assessment of drug absorption and transport mechanisms. In this study, we evaluated drug absorption and distribution in vitro with the help of the Caco-2 cell model. Caco-2 cells were purchased from the Chinese Academy of Medical Sciences (Beijing, China, Resource No. 3111C0001CCC000100). The cells were resuscitated and inserted into culture flasks. Caco-2 cells were passaged with DMEM high glucose medium containing 10% (V/V) FBS, 1% (V/V) non-essential amino acid solution and 100 U/mL penicillin-streptomycin double antibiotic solution, and cultured at 37°C in a 5% CO2 incubator. […] The integrity of the cell monolayer was checked by measuring the transmembrane electrical resistance (TEER) of the monolayer cells with a Millicell-ERS electrode (Millipore Corp., Billerica, MA, USA). Caco-2 cells were used for transport experiments 17–21 days after inoculation. Besides, only monolayers with TEER values above 400 Ω/cm^2 were used in the study.
The transport of R123 in normal Caco-2 cell monolayers or drug-treated Caco-2 cell monolayers was further studied. […] The transport buffer containing 5 μM of R123 was added on either the AP or the BL side of the inserts, as described above. […] The concentrations of R123 were immediately analyzed by SpectraMax iD3. The excitation wavelength was set at 485 nm, and the emission wavelength at 535 nm. Papp values across the cell monolayers were calculated according to the equation: Papp = dQ/dt × 1/(A × C0), where dQ/dt represents the rate of drug transport. […] The efflux ratio was calculated using the Papp (BL-AP) to Papp (AP-BL) ratio.

Caco-2 cells = assay: Cytotoxicity in Caco-2 cells, CCK-8 assay; type: cell-based, human; details: for Cell survival rate%: mean; for cck-8 mean (survival fraction): mean of 6
Method: Caco-2 cells were cultured in 96-well plates for 48 h at a seeding density of 5.0 × 10^3 cells/well before the addition of drugs. […] The final concentration of DMSO was 0.05% (v/v). Experiments were initiated by replacing the culture medium in each well with 100 μL of sample solutions at 37°C in the CO2 incubator. After 48 h of incubation, the medium was removed and 10 μL of CCK-8 reagent in the serum-free medium was added to each well. The plates were then incubated at 37°C for another 2 h. At the end of the incubation period, the plates were quantified by reading the absorbance at 450 nm on a micro-plate multi-detection instrument, SpectraMax iD3 with SoftMax® Pro (Molecular Devices Corporation Sunnyvale, CA, USA). The percentage of cell viability was calculated based on the absorbance measured relative to the absorbance of cells exposed to the negative control.

in vivo = details: male, Sprague Dawley, rat, po, 352 mg/kg
[1] = Stability of the five compounds in SD rat plasma (QC samples, UHPLC-ESI-MS/MS); type: in vitro ADME; details: for mean measured concentration: rat plasma, mean of 5; for stability, Accuracy (measured versus nominal concentration) / stability, mean ± SD (measured concentration): SD rat plasma, n=5
Method: The method was validated according to the US Food and Drug Administration (FDA) Bioanalytical Method Validation Guidance as follows: [1] specificity was assessed by analyzing blank plasma, blank plasma spiked with standard solutions and rat plasma samples after oral administration. Each calibration curve was plotted using the concentration of the standard solution as the horizontal coordinate and the ratio of analyte to internal standard peak area as the vertical coordinate. The lower limit of quantification (LLOQ) refers to the lowest concentration, which is typically 10 times the signal-to-noise ratio. It has an acceptable accuracy of ± 20% and a precision of less than 20% [3]. Quality Control (QC) samples (low, medium and high concentrations) were prepared for each analyte. Five samples were analyzed at each concentration level and three consecutive batches were determined to calculate the accuracy and precision of the method. Extraction recovery was assessed by the ratio of the average peak area of routinely prepared QC samples (low, medium, and high concentrations) to the post-extraction plasma sample. Likewise, matrix effect was assessed by the ratio of peak areas between post-extraction samples spiked with analytes and mobile phases spiked with the same concentration of analytes.

[2] = male, Sprague Dawley, rat, in vivo, po, 352 mg/kg
[3] = Caco-2, concentration 10 μmol/L
[4] = Caco-2, concentration 20 μmol/L
[5] = Caco-2, concentration 40 μmol/L
[6] = Caco-2, concentration 80 μmol/L
[7] = nominal 160 ng/mL, 3 freeze-thaw cycles
[8] = nominal 160 ng/mL, 7 days at -80°C
[9] = nominal 160 ng/mL, Room temperature 24h
[10] = nominal 1000 ng/mL, 3 freeze-thaw cycles
[11] = nominal 1000 ng/mL, 7 days at -80°C
[12] = nominal 1000 ng/mL, Room temperature 24h
[13] = nominal 5000 ng/mL, 3 freeze-thaw cycles
[14] = nominal 5000 ng/mL, 7 days at -80°C
[15] = nominal 5000 ng/mL, Room temperature 24h

C=C(C(=O)O)[C@@H]1CC[C@@H](C)[C@@H]2CCC(C)=C[C@@H]21 [AA, Artemisinic acid]
reduction of R123 transport from the BL side to the AP side (P-glycoprotein (P-gp)): 26.82% | Cell survival rate%, single replicate (Caco-2 cells; Caco-2, 5μmol/L): 86.78% and 81.42% and 81.32% and 82.7% and 86.07% and 80.23% | Cell survival rate%, single replicate (Caco-2 cells; Caco-2, 10μmol/L): 83.23% and 82.76% and 85.19% and 84.02% and 81.01% (2×) | Cell survival rate%, single replicate (Caco-2 cells; Caco-2, 20μmol/L): 82.79% and 80.95% and 80.96% and 82.01% and 83.04% and 83.63% | Cell survival rate%, single replicate (Caco-2 cells; Caco-2, 40μmol/L): 79.21% and 80.38% and 82.01% and 81.79% and 85.15% and 82.39% | Cell survival rate%, single replicate (Caco-2 cells; Caco-2, 80μmol/L): 81.2% and 78.64% and 82.71% and 80.82% and 78.89% and 79.03% | cck-8 cell survival as fraction, single replicate (Caco-2 cells; Caco-2, concentration 5 μmol/L): 0.8678 and 0.8142 and 0.8132 and 0.827 and 0.8607 and 0.8023 | Cell survival rate% (Caco-2 cells; Caco-2, concentration 5 μmol/L): 83.09% | cck-8 mean (survival fraction) (Caco-2 cells; Caco-2, concentration 5 μmol/L): 0.83 | cck-8 cell survival as fraction, single replicate (Caco-2 cells; [3]): 0.8323 and 0.8276 and 0.8519 and 0.8402 and 0.8101 | Cell survival rate% (Caco-2 cells; [3]): 82.87% | cck-8 mean (survival fraction) (Caco-2 cells; [3]): 0.83 | cck-8 cell survival as fraction, single replicate (Caco-2 cells; [4]): 0.8279 and 0.8095 and 0.8096 and 0.8201 and 0.8304 and 0.8363 | Cell survival rate% (Caco-2 cells; [4]): 82.23% | cck-8 mean (survival fraction) (Caco-2 cells; [4]): 0.82 | cck-8 cell survival as fraction, single replicate (Caco-2 cells; [5]): 0.7921 and 0.8038 and 0.8201 and 0.8179 and 0.8515 and 0.8239 | Cell survival rate% (Caco-2 cells; [5]): 81.82% | cck-8 mean (survival fraction) (Caco-2 cells; [5]): 0.82 | cck-8 cell survival as fraction, single replicate (Caco-2 cells; [6]): 0.812 and 0.7864 and 0.8271 and 0.8082 and 0.7889 and 0.7903 | Cell survival rate% (Caco-2 cells; [6]): 80.22% | cck-8 mean (survival fraction) (Caco-2 cells; [6]): 0.80 | AUC(0-inf) (in vivo): 23700 ± 4990 ng·h/mL | AUC(0-t) (in vivo): 23000 ± 4720 ng·h/mL | Cmax (in vivo; Cmax): 5370 ± 590 ng/mL | half-life (in vivo; t1/2): 4.29 ± 1.37 h | mean measured concentration ([1]; AA QC 160ng, 3 freeze-thaw cycles): 175.436 ng/mL | mean measured concentration ([1]; AA QC 160ng, 7 days at -80°C): 168.832 ng/mL | mean measured concentration ([1]; AA QC 160ng, Room temperature 24h): 151.908 ng/mL | mean measured concentration ([1]; AA QC 1000ng, 3 freeze-thaw cycles): 947.702 ng/mL | mean measured concentration ([1]; AA QC 1000ng, 7 days at -80°C): 919.418 ng/mL | mean measured concentration ([1]; AA QC 1000ng, Room temperature 24h): 955.778 ng/mL | mean measured concentration ([1]; AA QC 5000ng, 3 freeze-thaw cycles): 4777.45 ng/mL | mean measured concentration ([1]; AA QC 5000ng, 7 days at -80°C): 4737.9 ng/mL | mean measured concentration ([1]; AA QC 5000ng, Room temperature 24h): 4689.24 ng/mL | stability, Accuracy (measured versus nominal concentration) [1, 7]: 109.65% | stability, mean ± SD (measured concentration) [1, 7]: 175 ± 7.36 ng/mL | stability, Accuracy (measured versus nominal concentration) [1, 8]: 105.52% | stability, mean ± SD (measured concentration) [1, 8]: 169 ± 8.62 ng/mL | stability, Accuracy (measured versus nominal concentration) [1, 9]: 94.94% | stability, mean ± SD (measured concentration) [1, 9]: 152 ± 6.95 ng/mL | stability, Accuracy (measured versus nominal concentration) [1, 10]: 94.77% | stability, mean ± SD (measured concentration) [1, 10]: 948 ± 56.6 ng/mL | stability, Accuracy (measured versus nominal concentration) [1, 11]: 91.94% | stability, mean ± SD (measured concentration) [1, 11]: 919 ± 34.8 ng/mL | stability, Accuracy (measured versus nominal concentration) [1, 12]: 95.58% | stability, mean ± SD (measured concentration) [1, 12]: 956 ± 68.0 ng/mL | stability, Accuracy (measured versus nominal concentration) [1, 13]: 95.55% | stability, mean ± SD (measured concentration) [1, 13]: 4777 ± 82.6 ng/mL | stability, Accuracy (measured versus nominal concentration) [1, 14]: 94.76% | stability, mean ± SD (measured concentration) [1, 14]: 4738 ± 174 ng/mL | stability, Accuracy (measured versus nominal concentration) [1, 15]: 93.78% | stability, mean ± SD (measured concentration) [1, 15]: 4689 ± 298 ng/mL | CL [2]: 0.001 ± 0.001 L/h | CLz [2]: 24 mL/day/kg
